Experimental data: paper PMC7279002, “Novel 3′-Substituted-1′,2′,4′-Oxadiazole Derivatives of 18βH-Glycyrrhetinic Acid and Their O-Acylated Amidoximes: Synthesis and Evaluation of Antitumor and Anti-Inflammatory Potential In Vitro and In Vivo” (International Journal of Molecular Sciences, 2020)
Read-outs that look alike come from different tables or passages of the source.

How the values were obtained:
[1] = tested on: TNFα production by IFN-γ-stimulated RAW264.7 cells; assay: TNF-α production by IFNγ-stimulated macrophages (ELISA); assay type: cell-based, murine; settings: 10–50 µM, 24 h, IFNγ (20 ng/mL)
Procedure: (§1) RAW264.7 cells were seeded in tetraplicates in 96-well plates at a density of 10^5 cells/well and incubated under standard conditions for 24 h. The cells were treated with murine IFNγ (20 ng/mL) (Gibco, Grand Island, NY, USA) with or without (control) 3d (10–50 µM) for a further 24 h. At the end of the incubation period, the levels of TNF-α and NO in culture medium were measured using murine TNF alpha ELISA (Thermo Scientific, Frederick, MD, USA) and the Griess reagent system (Promega, Madison, WI, USA), respectively, according to manufacturers’ instructions.

[2] = tested on: NO synthesis by IFN-γ-induced RAW264.7 cells; assay: NO production by IFNγ-stimulated macrophages (Griess); assay type: cell-based, murine; settings: 10–50 µM, 24 h, IFNγ (20 ng/mL)
Procedure: as §1

[3] = tested on: carrageenan-induced paw edema; assay: Carrageenan-induced paw edema; assay type: in vivo, ICR mice
Procedure: To induce paw edema, ICR mice were injected with 1% carrageenan (50 μL) on the plantar side of the right hind paw. […] Mice were sacrificed 5 h after induction of paw edema. The percent of edema weight in carrageenan-injected compound-treated groups in comparison to that in vehicle-treated control group was calculated according to the formula: % Edema=(M1−M2/M2)^compound/∑n(M1−M2/M2)^vehicle×n×100%, where M1 is the weight of the paw with carrageenan-induced edema; M2 is the weight of the intact paws; compound and vehicle correspond to the compound- and vehicle-treated phlogogen-injected mice, respectively; and n is the number of mice in the control group (n = 9). Furthermore, paw material was collected for subsequent histological analysis.
For histological analysis, the specimens of intact and edema paws from each animal were dehydrated in ascending ethanol and xylol and embedded in HistoMix paraffin (BioVitrum, Russia). Paraffin sections (5 μm) were sliced on a Microm HM 355S microtome (Thermo Fisher Scientific, Waltham, MA, USA) and stained with hematoxylin and eosin. Images were obtained using an Axiostar Plus microscope equipped with an Axiocam MRc5 digital camera (Zeiss, Oberkochen, Germany) at ×100 and ×400 magnifications.

[4] = tested on: HeLa, KB-3-1, HuTu-80, A549, B16 and hFF3 cells; assay: MTT cytotoxicity, summary over the panel of cell lines; assay type: cell-based
Procedure: (§2) On the first step of the biological evaluation of novel GA derivatives 3a-h, 4a-h, and 5a-h, we analyzed their cytotoxicity in a panel of cultured mammalian cells, including human cervical carcinoma HeLa and KB-3-1, human duodenal carcinoma HuTu-80, human lung adenocarcinoma A549, murine melanoma B16 cell lines, and nontransformed human fibroblasts hFF3. The cells were treated with derivatives for 48 h and cell viability was evaluated by 3-(4, 5-dimethylthiazol-2-yl)-2, 5-diphenyltetrazolium bromide (MTT) assay. Since the studied compounds contain two types of functional groups at position 3-acetoxy- or the hydroxyl-group, 3-acetoxy-GA 1 and GA-Me were used as references. Additionally, hierarchical clustering of cytotoxic data was carried out in order to reveal groups of compounds with similar cytotoxic profiles (Figure 2A).
(§3) Cells were seeded in tetra- or pentaplicates in 96-well plates at a density of 10^4 (tumor cells and […] fibroblasts) or 10^5 (RAW264.7 cells) cells per well. Cells were incubated under standard conditions for 24 h, followed by their treatment with the investigated derivatives (0.5–50 µM) or corresponding concentrations of DMSO (control) for a further 48 h (tumor cells and fibroblasts) or 24 h (RAW264.7 cells). At the end of incubation period, 10 µL of MTT solution was added to the cells (final concentration: 0.5 mg/mL) and plates were incubated for an additional 2 h under standard conditions. Then, the MTT-containing medium was aspirated and formazan crystals formed in living cells were solubilized with 100 µL of DMSO. The absorbance of each well was read at test and reference wavelengths of 570 and 620 nm, respectively, on a Multiscan RC plate reader (Thermo LabSystems, Helsinki, Finland). The IC50 values (the concentration of compounds leading to a decrease of A570 to 50% of A570^control) were calculated by extrapolation of the dose–response curves. […] A heatmap of SI values was constructed by Microsoft Excel 2010.

[5] = tested on: carrageenan-induced peritonitis; assay: Carrageenan-induced peritonitis; assay type: in vivo, ICR mice; settings: i.p. 1 h before carrageenan, 4 h
Procedure: To study the effect of 3d on carrageenan-induced peritonitis, ICR mice were injected with 1% carrageenan (250 μL) intraperitoneally (i.p.). Compound 3d (50 mg/kg), vehicle (10% Tween-80), dexamethasone (1 mg/kg) as a reference anti-inflammatory drug, and saline buffer were administered i.p. 1 h before peritonitis induction. The healthy uninflamed group (control) was injected i.p. by saline. Mice were sacrificed 4 h after carrageenan injection and their peritoneal cavities were washed with 2 mL of heparinized cold saline buffer to obtain peritoneal cells. The peritoneal exudates were collected and the total leukocyte counts were performed with a Neubauer chamber by optical microscopy after diluting the peritoneal fluid with Turk solution (1:20). To determine the differential leukocyte counts (total 100 cells), peritoneal cells were centrifuged and placed onto slides, stained with azur–eosin by Romanovsky–Giemsa and examined by optical microscopy. The results were expressed as the number of total leukocytes (×10^5 cells/mL) and the percentages of subpopulations of neutrophils, lymphocytes, and monocytes.

[6] = tested on: murine RAW264.7 macrophages; assay: MTT cytotoxicity assay, 24 h; assay type: cell-based; settings: up to 50 µM
Procedure: as §3

[7] = tested on: murine melanoma B16; assay: MTT cytotoxicity assay, 48 h; assay type: cell-based; settings: Mus musculus; MTT, 48 h
Procedure: as §2
(§4) Human cervical carcinoma HeLa and KB-3-1 cells, human duodenal carcinoma HuTu-80 cells, and human lung adenocarcinoma A549 cells were obtained from the Russian Culture Collection (Institute of Cytology, RAS, St. Petersburg, Russia). Melanoma B16-F10 (hereafter, melanoma B16) cells were obtained from the Cell Culture Bank of the Blokhin National Medical Oncology Research Center (Moscow, Russia). Nonmalignant fibroblasts hFF3 and RAW264.7 macrophages were kindly provided by Dr. Olga A. Koval (Institute of Chemical Biology and Fundamental Medicine, SB RAS, Novosibirsk, Russia) and Prof. Dmitry Kuprash (Engelhardt Institute of Molecular Biology, RAS, Moscow, Russia), respectively. The cells were cultured in DMEM (Sigma-Aldrich Inc., St. Louis, MO, USA) supplemented with 10% (v/v) heat-inactivated fetal bovine serum (FBS) (BioloT, St. Petersburg, Russia) and antibiotic–antimycotic solution (100 U/mL penicillin, 100 µg/mL streptomycin, 0.25 µg/mL amphotericin). […] The cells were incubated at 37 °C in a humidified 5% CO2-containing air atmosphere (hereafter referred to as standard conditions). GA derivatives were dissolved in DMSO (stock solutions: 10 mM) and stored at −20 °C prior to use.
as §3

[8] = tested on: nontransformed human fibroblasts hFF3; assay: MTT cytotoxicity assay, 48 h; assay type: cell-based; settings: Homo sapiens, HFF-3, read-out: IC50, µM Fibroblast hFF3
Procedure: as §2, §4, §3

[9] = tested on: human duodenal carcinoma HuTu-80; assay: MTT cytotoxicity assay, 48 h; assay type: cell-based; settings: Homo sapiens, HuTu80; MTT, 48 h; read-out: IC50, µM Duodenum HuTu-80
Procedure: as §2, §4, §3

[10] = tested on: human cervical carcinoma HeLa; assay: MTT cytotoxicity assay, 48 h; assay type: cell-based; settings: Homo sapiens, HeLa; MTT, 48 h; read-out: IC50, µM Cervix HeLa
Procedure: as §2, §4, §3

[11] = tested on: human lung adenocarcinoma A549; assay: MTT cytotoxicity assay, 48 h; assay type: cell-based; settings: Homo sapiens, A549; MTT, 48 h
Procedure: as §2, §4, §3

[12] = tested on: human cervical carcinoma KB-3-1; assay: MTT cytotoxicity assay, 48 h; assay type: cell-based; settings: Homo sapiens, KB 3-1; MTT, 48 h; read-out: IC50, µM Cervix KB-3-1
Procedure: as §2, §4, §3

CC(=O)O[C@H]1CC[C@@]2(C)C(CC[C@]3(C)C2C(=O)C=C2[C@@H]4C[C@@](C)(C(=O)O/N=C(/N)C(C)(C)C)CC[C@]4(C)CC[C@]23C)C1(C)C (some centres unmarked) [Compound 3d]
suppression of TNFα production compared to the IFN-γ-stimulated control [1]: 2.2–9.0 times | inhibition of NO synthesis compared with the control [2]: up to 5.3 times | histology of footpads ([3]; 50 mg/kg, gastric gavage): substantially reducing leukocyte infiltration in the dermis of the footpads | decrease of the weight of edema compared with vehicle-treated mice ([3]; gastric gavage 1 h before carrageenan, 5 h after induction, 3d 50 mg/kg, indomethacin 20 mg/kg): 1.7 fold | melting point: 151.6 to 152.3 °C | cytotoxicity in all tested cell lines ([4]; all tested cell lines): nontoxic | IC50 ([4]; median over all tested cell lines, read-out: median IC50): > 50 µM | IC50 ([4]; read-out: IC50 values with respect to all tested cell lines): > 50 µM | distribution of leukocyte subpopulations in peritoneal fluid [5]: restore leukocyte subtype content to a healthy level | decrease of the total leukocyte number in peritoneal exudates ([5]; 3d 50 mg/kg, dexamethasone 1 mg/kg): 2.7 fold | cytotoxicity to RAW264.7 macrophages [6]: did not reveal cytotoxicity | IC50 [7]: > 50 µM | IC50 [8]: > 50 µM | IC50 [9]: > 50 µM | IC50 [10]: > 50 µM | IC50 [11]: > 50 µM | IC50 [12]: > 50 µM
